Data from US20260001928A1 (CORTERIA PHARMACEUTICALS, priority 2022, published 2026).
pEC50: −log10 of the molar value. *1 amine or outer side, *2 acyl side, *3 side chain or, on linkers, in order; H or OH if unused. Where a SMILES comes first, the peptide text is derived from it. Side-chain parts run from the residue outwards. [ ]: non-standard residue; d: D form. The star is where a group is joined. C20 diacid = O=C(O)CCCCCCCCCCCCCCCCCCC(=O)*; C18 diacid = O=C(O)CCCCCCCCCCCCCCCCC(=O)*; C16 diacid = O=C(O)CCCCCCCCCCCCCCC(=O)*; γGlu = O=C(O)[C@H](CCC(=O)[*:2])N[*:1]; C14 diacid = O=C(O)CCCCCCCCCCCCC(=O)*; NMeI = CC[C@H](C)[C@H](NC)C(=O)O; Myristoyl = CCCCCCCCCCCCCC(=O)*; Api = NC1(C(=O)O)CCNCC1; AEEA = NCCOCCOCC(=O)O; Aib = CC(C)(N)C(=O)O; Butyryl = CCCC(=O)*

Columns and labels:
CFR1R receptor = target: T1, CFR1R receptor (Homo sapiens, UniProt P34998); test: Activity at anti-target CFR1R receptor, cAMP assay in CRF1R-overexpression CHO-K1 cells; format: cell-based; details: 100% = Sauvagine at 100 nM; for pEC50: cAMP
T1 construct: host or cells: CHO-K1 (clone 2)
T1 sequence (P34998 24-415): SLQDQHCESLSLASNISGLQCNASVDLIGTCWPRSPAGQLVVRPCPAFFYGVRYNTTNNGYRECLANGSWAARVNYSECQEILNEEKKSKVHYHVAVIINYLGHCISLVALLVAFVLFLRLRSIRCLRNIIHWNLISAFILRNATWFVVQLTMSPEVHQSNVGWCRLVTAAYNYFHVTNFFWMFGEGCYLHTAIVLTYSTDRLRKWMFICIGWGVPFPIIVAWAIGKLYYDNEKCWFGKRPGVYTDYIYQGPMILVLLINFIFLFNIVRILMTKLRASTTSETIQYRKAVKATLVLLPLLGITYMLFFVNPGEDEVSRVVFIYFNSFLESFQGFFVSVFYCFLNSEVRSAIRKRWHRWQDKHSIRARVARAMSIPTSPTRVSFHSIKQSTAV
In short: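 The method mirrors that used with TeloHAEC cells. Here, thawed clone 2 cells seeded at 4000 cells/well are tested, and 100 nM Sauvagine sets the top of the activation scale.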

human CRF2a receptor = target: T2, human CRF2a receptor (Homo sapiens, UniProt Q13324); test: Activity at human CRF2a receptor, cAMP functional assay in TeloHEAC cells; format: cell-based; details: TeloHEAC cells stably expressing human CRF2a receptor, relative to urocortin 2 (100 nM = 100%)
T2 construct: expressed in transfected cells; host or cells: TeloHEAC cells
T2 sequence (Q13324 1-411): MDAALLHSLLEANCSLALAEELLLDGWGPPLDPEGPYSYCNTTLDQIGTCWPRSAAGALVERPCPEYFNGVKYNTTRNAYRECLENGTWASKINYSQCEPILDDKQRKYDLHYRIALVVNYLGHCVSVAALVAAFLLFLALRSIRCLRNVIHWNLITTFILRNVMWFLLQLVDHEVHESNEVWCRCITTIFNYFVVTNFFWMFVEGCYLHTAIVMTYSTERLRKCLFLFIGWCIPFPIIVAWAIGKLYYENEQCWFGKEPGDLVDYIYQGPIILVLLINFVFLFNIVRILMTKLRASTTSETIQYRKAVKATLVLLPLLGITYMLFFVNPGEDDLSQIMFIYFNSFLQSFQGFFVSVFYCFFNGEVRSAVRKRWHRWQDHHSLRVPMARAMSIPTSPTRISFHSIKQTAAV
Procedure: Agonism of compounds for human corticotropin-releasing factor 2a (CRF2a receptor) was determined by a functional assay measuring cAMP modulation upon treatment of TeloHEAC cells stably expressing human CRF2a receptor. Compounds were dissolved at 0.5 mM in 100% DMSO and serially diluted (1:2) in 100% DMSO for 16 dilutions. 20 nL of each dilution was then transferred to 384-well assay plate using an acoustic droplet ejection instrument. 5 μL of compound buffer (1×HBSS; 20 mM HEPES,) were then added to each well. Prior to use, frozen cells were thawed quickly at 37° C. and washed (5 min at 900 rpm) with 20 mL cell buffer (1×HBSS; 20 mM HEPES). Cells were resuspended in cell buffer added with 2 mM IBMX and adjusted to a cell density of […]. 5 μL cells (final dell density: 10000 cells/well) were dispensed in the compound-containing 384-well assay plate and incubated for 30 minutes 37° C. The cAMP level in treated cells was determined using the Cisbio 62AM4PEC kit according to manufacturer's instruction. Finally, plates were incubated for 1 h at room temperature before measuring the fluorescence ratio between 665/620 nm. The percent activity value (E %) was calculated by setting 100 nM of urocortin 2 (UCN2) as 100%. The in vitro potency of the compounds was quantified by determining the concentrations that caused 50% activation of maximal response (EC50) relative to urocortin 2.

| SMILES | Emax (% I) (CFR1R receptor) | pEC50 (CFR1R receptor) | pEC50 (human CRF2a receptor) |
| --- | --- | --- | --- |
| CC[C@H](C)[C@H](NC(C)=O)C(=O)N[C@H](C(=O)N[C@@H](CC(C)C)C(=O)N[C@@H](CO)C(=O)N[C@@H](CC(C)C)C(=O)N[C@@H](CC(=O)O)C(=O)N[C@@H](C(=O)N1CCC[C@H]1C(=O)N[C@H](C(=O)N[C@@H](CCCCN)C(=O)N[C@@H](CC(C)C)C(=O)N[C@@H](CCCCNC(=O)COCCOCCNC(=O)COCCOCCNC(=O)CC[C@H](NC(=O)CCCCCCCCCCCCC(=O)O)C(=O)O)C(=O)N[C@@H](CCCCN)C(=O)N[C@H](C(=O)N[C@@H](CC(C)C)C(=O)N[C@@H](CC(C)C)C(=O)N[C@@H](CCC(=O)O)C(=O)N[C@@H](CCC(N)=O)C(=O)N[C@@H](CCC(=O)O)C(=O)N[C@@H](CCCCN)C(=O)N[C@@H](CCC(N)=O)C(=O)N[C@@H](CCCCN)C(=O)NC(C)(C)C(=O)N[C@@H](CCC(N)=O)C(=O)N[C@@H](CCCNC(=N)N)C(=O)N[C@@H](CCC(=O)O)C(=O)N[C@@H](CCC(N)=O)C(=O)N[C@@H](C)C(=O)N[C@@H](CCC(=O)O)C(=O)N[C@H](C(=O)N[C@@H](CC(N)=O)C(=O)NC1(C(=O)N[C@@H](CCC(N)=O)C(=O)N[C@H](C(=O)N[C@@H](CC(C)C)C(=O)N[C@@H](C)C(=O)N[C@@H](CCC(N)=O)C(=O)N[C@H](C(N)=O)C(C)C)[C@@H](C)CC)CCNCC1)[C@@H](C)O)[C@@H](C)CC)[C@@H](C)CC)C(C)C)C(C)C [compound 173] (Ac-IVLSLD[dV]PIKLK([AEEA-AEEA-γGlu-C14 diacid])KILLEQEKQK[Aib]QREQAETN[Api]QILAQV-NH2) | −1 | < 6.60 | 7.55 |
| CCCCCCCCCCCCCC(=O)N[C@H](C(=O)N[C@@H](CC(C)C)C(=O)N[C@@H](CO)C(=O)N[C@@H](CC(C)C)C(=O)N[C@@H](CC(=O)O)C(=O)N[C@@H](C(=O)N1CCC[C@H]1C(=O)N[C@H](C(=O)N[C@@H](CCCCN)C(=O)N[C@@H](CC(C)C)C(=O)N[C@@H](CCCCNC(=O)CC[C@H](NC(=O)CCCCCCCCCCCCCCCCCCC(=O)O)C(=O)O)C(=O)N[C@@H](CCCCN)C(=O)N[C@H](C(=O)N[C@@H](CC(C)C)C(=O)N[C@@H](CC(C)C)C(=O)N[C@@H](CCC(=O)O)C(=O)N[C@@H](CCC(N)=O)C(=O)N[C@@H](CCC(=O)O)C(=O)N[C@@H](CCCCN)C(=O)N[C@@H](CCC(N)=O)C(=O)N[C@@H](CCCCN)C(=O)N[C@@H](CCCCN)C(=O)N[C@@H](CCC(N)=O)C(=O)N[C@@H](CCCNC(=N)N)C(=O)N[C@@H](CCC(=O)O)C(=O)N[C@@H](CCC(N)=O)C(=O)N[C@@H](C)C(=O)N[C@@H](CCC(=O)O)C(=O)N[C@H](C(=O)N[C@@H](CC(N)=O)C(=O)NC(C)(C)C(=O)N[C@@H](CCC(N)=O)C(=O)N[C@H](C(=O)N[C@@H](CC(C)C)C(=O)N[C@@H](C)C(=O)N[C@@H](CCC(N)=O)C(=O)N[C@H](C(N)=O)C(C)C)[C@@H](C)CC)[C@@H](C)O)[C@@H](C)CC)[C@@H](C)CC)C(C)C)C(C)C [compound 225] (Myristoyl-VLSLD[dV]PIKLK([γGlu-C20 diacid])KILLEQEKQKKQREQAETN[Aib]QILAQV-NH2) | 70 |  | 10.05 |
| CCCC(=O)N[C@H](C(=O)N[C@@H](CC(C)C)C(=O)N[C@@H](CO)C(=O)N[C@@H](CC(C)C)C(=O)N[C@@H](CC(=O)O)C(=O)N[C@@H](C(=O)N1CCC[C@H]1C(=O)N[C@H](C(=O)N[C@@H](CCCCN)C(=O)N[C@@H](CC(C)C)C(=O)N[C@@H](CCCCNC(=O)CC[C@H](NC(=O)CCCCCCCCCCCCCCC(=O)O)C(=O)O)C(=O)N[C@@H](CCC(N)=O)C(=O)N[C@H](C(=O)N[C@@H](CC(C)C)C(=O)N[C@@H](CC(C)C)C(=O)N[C@@H](CCCCN)C(=O)N[C@@H](CCC(N)=O)C(=O)N[C@@H](CCC(=O)O)C(=O)N[C@@H](CCCNC(=N)N)C(=O)N[C@@H](CCC(N)=O)C(=O)N[C@@H](CCCCN)C(=O)N[C@@H](CCCCN)C(=O)N[C@@H](CCC(N)=O)C(=O)N[C@@H](CCCNC(=N)N)C(=O)N[C@@H](CCC(=O)O)C(=O)N[C@@H](CCC(N)=O)C(=O)N[C@@H](C)C(=O)N[C@@H](CCC(=O)O)C(=O)N[C@@H](CCCCN)C(=O)N[C@@H](CC(N)=O)C(=O)N[C@@H](CCCCN)C(=O)N[C@@H](CCC(N)=O)C(=O)N[C@H](C(=O)N[C@@H](CC(C)C)C(=O)N[C@@H](CCC(=O)O)C(=O)N[C@@H](CCC(N)=O)C(=O)N[C@H](C(N)=O)C(C)C)[C@@H](C)CC)[C@@H](C)CC)[C@@H](C)CC)C(C)C)C(C)C [compound 7] (Butyryl-VLSLD[dV]PIKLK([γGlu-C16 diacid])QILLKQERQKKQREQAEKNKQILEQV-NH2) | 59 |  | 10.22 |
| CC[C@H](C)[C@H](N)C(=O)N[C@H](C(=O)N[C@@H](CC(C)C)C(=O)N[C@@H](CO)C(=O)N[C@@H](CC(C)C)C(=O)N[C@@H](CC(=O)O)C(=O)N[C@@H](C(=O)N1CCC[C@H]1C(=O)N[C@H](C(=O)N[C@@H](CCCCN)C(=O)N[C@@H](CC(C)C)C(=O)N[C@@H](CCCCNC(=O)COCCOCCNC(=O)COCCOCCNC(=O)CC[C@H](NC(=O)CCCCCCCCCCCCCCCCC(=O)O)C(=O)O)C(=O)N[C@@H](CCC(N)=O)C(=O)N[C@H](C(=O)N[C@@H](CC(C)C)C(=O)N[C@@H](CC(C)C)C(=O)N[C@@H](CCCCN)C(=O)N[C@@H](CCC(N)=O)C(=O)N[C@@H](CCC(=O)O)C(=O)N[C@@H](CCCNC(=N)N)C(=O)N[C@@H](CCC(N)=O)C(=O)N[C@@H](CCCCN)C(=O)N[C@@H](CCCCN)C(=O)N[C@@H](CCC(N)=O)C(=O)N[C@@H](CCCNC(=N)N)C(=O)N[C@@H](CCC(=O)O)C(=O)N[C@@H](CCC(N)=O)C(=O)N[C@@H](C)C(=O)N[C@@H](CCC(=O)O)C(=O)N[C@@H](CCCCN)C(=O)N[C@@H](CC(N)=O)C(=O)N[C@@H](CCCCN)C(=O)N[C@@H](CCC(N)=O)C(=O)N[C@H](C(=O)N[C@@H](CC(C)C)C(=O)N[C@@H](CCC(=O)O)C(=O)N[C@@H](CCC(N)=O)C(=O)N[C@H](C(N)=O)C(C)C)[C@@H](C)CC)[C@@H](C)CC)[C@@H](C)CC)C(C)C)C(C)C [compound 150] (H-IVLSLD[dV]PIKLK([AEEA-AEEA-γGlu-C18 diacid])QILLKQERQKKQREQAEKNKQILEQV-NH2) | 38 | < 6.60 | 9.60 |
| CC[C@H](C)[C@H](NC)C(=O)N[C@H](C(=O)N[C@@H](CC(C)C)C(=O)N[C@@H](CO)C(=O)N[C@@H](CC(C)C)C(=O)N[C@@H](CC(=O)O)C(=O)N[C@@H](C(=O)N1CCC[C@H]1C(=O)N[C@H](C(=O)N[C@@H](CCCCN)C(=O)N[C@@H](CC(C)C)C(=O)N[C@@H](CCCCNC(=O)CC[C@H](NC(=O)CCCCCCCCCCCCCCC(=O)O)C(=O)O)C(=O)N[C@@H](CCCCN)C(=O)N[C@H](C(=O)N[C@@H](CC(C)C)C(=O)N[C@@H](CC(C)C)C(=O)N[C@@H](CCC(=O)O)C(=O)N[C@@H](CCC(N)=O)C(=O)N[C@@H](CCC(=O)O)C(=O)N[C@@H](CCCCN)C(=O)N[C@@H](CCC(N)=O)C(=O)N[C@@H](CCCCN)C(=O)N[C@@H](CCCCN)C(=O)N[C@@H](CCC(N)=O)C(=O)N[C@@H](CCCNC(=N)N)C(=O)N[C@@H](CCC(=O)O)C(=O)N[C@@H](CCC(N)=O)C(=O)N[C@@H](C)C(=O)N[C@@H](CCC(=O)O)C(=O)N[C@H](C(=O)N[C@@H](CC(N)=O)C(=O)N[C@@H](C)C(=O)N[C@@H](CCC(N)=O)C(=O)N[C@H](C(=O)N[C@@H](CC(C)C)C(=O)N[C@@H](C)C(=O)N[C@@H](CCC(N)=O)C(=O)N[C@H](C(N)=O)C(C)C)[C@@H](C)CC)[C@@H](C)O)[C@@H](C)CC)[C@@H](C)CC)C(C)C)C(C)C [compound 68] (H-[NMeI]VLSLD[dV]PIKLK([γGlu-C16 diacid])KILLEQEKQKKQREQAETNAQILAQV-NH2) | 8 | < 6.60 | 10.30 |
